According to US7148232B2, “Oxazolo, thiazolo and selenazolo [4,5-c]-quinolin-4-amines and analogs thereof” (3M Innovative Properties Company, priority 1998, dated 2006):

Assays:
interferon (α) = assay: Interferon (α) induction in human cells (in vitro human blood cell system, interferon by bioassay); type: cell-based; conditions: human PBM's, 48 hours
Method: An in vitro human blood cell system was used to assess interferon induction by compounds of the invention. Activity is based on the measurement of interferon secreted into culture media. Interferon is measured by bioassay.
Whole blood is collected by venipuncture into EDTA vacutainer tubes. Peripheral blood mononuclear cells (PBM's) are separated from whole blood by using either LeucoPREP™ Brand Cell Separation Tubes (available from Becton Dickinson) or Ficoll-Paque® solution (available from Pharmacia LKB Biotechnology Inc, Piscataway, N.J.). […] 200 μL portions of PBM suspension are added to 96 well (flat bottom) sterile tissue culture plates (Becton Dickinson Labware, Lincoln Park, N.J.).
The compounds are solubilized in ethanol, dimethyl sulfoxide or tissue culture water then diluted with tissue culture water, 0.01N sodium hydroxide or 0.01N hydrochloric acid (The choice of solvent will depend on the chemical characteristics of the compound being tested.). Ethanol or DMSO concentration should not exceed a final concentration of 1% for addition to the culture wells. Compounds are initially tested in a concentration range of from about 0.1 μg/mL to about 5 μg/mL. Compounds which show induction at a concentration of 0.5 μg/mL are then tested in a wider concentration range.
The solution of test compound is added in a volume (less than or equal to 50 μL) to the wells containing 200 μL of diluted whole blood or of PBM's in media. Solvent and/or media is added to control wells (wells with no test compound) and as needed to adjust the final volume of each well to 250 μL. The plates are covered with plastic lids, vortexed gently and then incubated for 48 hours at 37° C. with a 5% carbon dioxide atmosphere.
Following incubation, the plates are covered with parafilm and then centrifuged at 1000 rpm for 10 to 15 minutes at 4° C. in a Damon IEC Model CRU-5000 centrifuge. Media (about 200 μL) is removed from 4 to 8 wells and pooled into 2 mL sterile freezing vials. Samples are maintained at −70° C. until analysis.
Interferon is determined by bioassay using A549 human lung carcinoma cells challenged with encephalomyocarditis. The details of the bioassay method have been described by G. L. Brennan and L. H. Kronenberg in “Automated Bioassay of Interferons in Micro-test Plates”, Biotechniques, June/Jul. […] The incubated cells are infected with an inoculum of encephalomyocarditis virus. The infected cells are incubated for an additional period at 37° C. before quantifying for viral cytopathic effect. The viral cytopathic effect is quantified by staining followed by spectrophotometric absorbance measurements. Results are expressed as alpha reference units/mL based on the value obtained for NIH HU IF-L standard.
Compounds of the invention were tested for their ability to induce interferon in human cells using the test method described above.

| melting point | Structure (SMILES) | Interferon (α) Induction in Human Cells (interferon (α); Dose Concentration 0.01 μg/mL) | Interferon (α) Induction in Human Cells (interferon (α); Dose Concentration 0.05 μg/mL) | Interferon (α) Induction in Human Cells (interferon (α); Dose Concentration 0.10 μg/mL) | Interferon (α) Induction in Human Cells (interferon (α); Dose Concentration 0.50 μg/mL) | Interferon (α) Induction in Human Cells (interferon (α); Dose Concentration 1.0 μg/mL) | Interferon (α) Induction in Human Cells (interferon (α); Dose Concentration 5.0 μg/mL) | Interferon (α) Induction in Human Cells (interferon (α); Dose Concentration 10.0 μg/mL) | Interferon (α) Induction in Human Cells (interferon (α); Dose Concentration 25.0 μg/mL) | Interferon (α) Induction in Human Cells (interferon (α); Dose Concentration 50.0 μg/mL) |
| --- | --- | --- | --- | --- | --- | --- | --- | --- | --- | --- |
| 123 to 125 °C | CC(C)Cc1nc2c(N)nc3ccccc3c2s1 [Example 32, 2-(2-Methylpropyl)thiazolo[4,5-c]quinolin-4-amine] | − | − | ± | + | + | + |  |  |  |
| 147 to 149 °C | CCCc1nc2c(N)nc3ccc(C)cc3c2s1 [Example 36, 8-Methyl-2-propylthiazolo[4,5-c]quinolin-4-amine] | − | − | − | − | + | + |  |  |  |
| 247 to 249 °C | Nc1nc2ccccc2c2sc(CO)nc12 [Example 37, (4-Aminothiazolo[4,5-c]quinolin-2-yl)-methanol] | − | − | − | − | − | − |  |  |  |
| 195 to 197 °C | Cc1nc2c(N)nc3ccccc3c2o1 [Example 38, 2-Methyloxazolo[4,5-c]quinolin-4-amine] | − | − | − | + | + | + |  |  |  |
| 175 to 178 °C | CCc1nc2c(N)nc3ccccc3c2o1 [Example 39, 2-Ethyloxazolo [4,5-c]quinolin-4-amine] | − | − | + | + | + | + |  |  |  |
| 159 to 160 °C | CCCc1nc2c(N)nc3ccccc3c2o1 [Example 43, 2-Propyloxazolo[4,5-c]quinolin-4-amine] | − | + | + | + | + | + |  |  |  |
| 177 to 180 °C | CCCc1nc2c(N)nc3ccc(Br)cc3c2s1 [Example 44, 8-Bromo-2-propylthiazolo[4,5-c]quinolin-4-amine] |  |  | − | − | − | + | + | + | + |
| 186 to 187 °C | CCCc1nc2c(N)nc3cc(C)ccc3c2s1 [Example 45, 7-Methyl-2-propylthiazolo[4,5-c]quinolin-4-amine] | − | + | + | + | + | + |  |  |  |
| 187 to 188 °C | CCCCc1nc2c(N)nc3cc(C)ccc3c2o1 [Example 46, 2-Butyl-7-methyloxazolo[4,5-c]quinolin-4-amine] | − | + | + | + | + | + |  |  |  |
| 188 to 189 °C | CCCc1nc2c(N)nc3cc(C)ccc3c2o1 [Example 47, 7-Methyl-2-propyloxazolo[4,5-c]quinolin-4-amine] | − | + | + | + | + | + |  |  |  |
| 184 to 187 °C | CCCc1nc2c(N)nc3cc(F)ccc3c2o1 [Example 48, 7-Fluoro-2-propyloxazolo[4,5-c]quinolin-4-amine] | − | − | − | + | + | + |  |  |  |
| 192.5 to 193.5 °C | CCCc1nc2c(N)nc3cc(F)ccc3c2s1 [Example 49, 7-Fluoro-2-propylthiazolo[4,5-c]quinolin-4-amine] | − | − | − | + | + | + |  |  |  |
| 215 to 216 °C | CCCc1nc2c(N)nc3cc(C(F)(F)F)ccc3c2s1 [Example 50, 2-Propyl-7-(trifluoromethyl)thiazolo[4,5-c]quinolin-4-amine] |  |  | − | + | + | + | + | + | + |
| 259 to 261 °C | Nc1nc2ccccc2c2sc(N3CCCC3)nc12 [Example 54, 2-(1-Pyrrolidino)thiazolo[4,5-c]quinolin-4-amine] | − | − | − | − | − | − | − | + | + |
